# Measured values from patent publication US20070207225A1 (priority 2006, published 2007).
# Legend:
# [1] = target: estrogen receptor ERβ (Homo sapiens, UniProt Q92731); conditions: competition assays, literature (Morito et al. 2001); cited from earlier work
# [2] = target: T1, estrogen receptor ERα (Homo sapiens, UniProt P03372); conditions: competition assays, literature (Morito et al. 2001); cited from earlier work
# T1 sequence (P03372 1-595): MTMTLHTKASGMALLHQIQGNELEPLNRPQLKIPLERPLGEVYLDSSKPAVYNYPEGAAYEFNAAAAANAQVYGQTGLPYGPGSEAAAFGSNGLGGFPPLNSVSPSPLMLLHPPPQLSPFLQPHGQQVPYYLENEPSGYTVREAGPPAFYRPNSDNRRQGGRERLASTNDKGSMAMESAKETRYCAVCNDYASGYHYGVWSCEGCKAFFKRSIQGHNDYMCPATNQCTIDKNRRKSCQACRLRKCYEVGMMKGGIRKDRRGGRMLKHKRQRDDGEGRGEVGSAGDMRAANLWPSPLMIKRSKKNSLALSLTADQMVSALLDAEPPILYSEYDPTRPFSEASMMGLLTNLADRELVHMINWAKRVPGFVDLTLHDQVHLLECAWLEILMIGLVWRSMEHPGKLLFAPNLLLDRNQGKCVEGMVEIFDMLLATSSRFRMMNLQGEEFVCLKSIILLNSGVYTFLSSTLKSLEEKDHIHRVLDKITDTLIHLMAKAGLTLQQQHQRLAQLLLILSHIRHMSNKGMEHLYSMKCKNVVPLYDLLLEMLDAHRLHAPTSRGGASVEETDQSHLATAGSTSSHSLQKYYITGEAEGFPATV
# [3] = Plasma genistein levels in postmenopausal women, six month treatment (HPLC-UV); type: in vivo, human; conditions: for Plasma Genistein: baseline, prior to six month treatment, n = 30
# Excerpt: (§1) Cardiovascular risk markers, according to various embodiments of the present invention, may comprise fasting insulin levels, fasting glucose levels, insulin resistance levels, osteoprotegerin levels, sex hormone-binding globulin levels, fibrinogen levels, estradiol levels and/or the like. […] See Crisafulli A., Altavilla D., Marini H., Bitto A., Cucinotta D., Frisina N., Corrado F., D'Anna R., Squadrito G., Adamo E., Marini R., Romeo A., Cancellieri F., Buemi M., Squadrito F., Menopause, The Journal of the North American Menopause Society, Vol. 12 No. 2 pp. 186-192.
# (§2) Prior to this six month period, participants in the study were placed on a standard fat-reduced diet for four-weeks, which constituted a stabilization process.
# (§3) The assay was performed by using an HPLC method with UV detection.
# (§4) Data was presented as mean±SEM, and the significance of the difference was assessed by analysis of variance, where a value of P less than 0.05 was considered statistically significant.
# [4] = tested on: fasting glucose; assay: Fasting glucose levels in postmenopausal women, six month treatment (enzymatic kit); type: in vivo, human; conditions: for Fasting Glucose: n = 30, mean±SEM
# Excerpt: as §1, §2
# To measure fasting glucose levels, serum glucose was measured by an enzymatic kit (BioSystemSA, Barcelona, Spain), (intra-assay CV 1%; interassay CV 1.8%; lower detection limit, 0.0126 mmol/L). Glucose in the sample produces, by means of the coupled reactions, a colored complex that can be spectrophotometrically measured.
# as §4
# [5] = tested on: fasting insulin; assay: Fasting insulin levels in postmenopausal women, six month treatment (ELISA); type: in vivo, human; conditions: for Fasting Insulin: n = 30, mean±SEM
# Excerpt: as §1, §2
# To measure fasting insulin levels, insulin was measured by a commercially available ELISA kit according to the protocol of the manufacturer (DRG Diagnostik, Frauenberg Germany) (intraassay CV 4%; interassay CV 6%; lower detection limit, <1.5 μlU/ml).
# as §4
# [6] = tested on: homocysteine; assay: Plasma homocysteine in osteopenic women, six month study (immunochemiluminescent assay); type: in vivo, human
# Excerpt: Inflammatory markers, according to various representative embodiments of the present invention, may comprise G-reactive proteins and/or homocysteine and/or the like. […] Prior to the six month period, participants in the study were placed on a standard fat-reduced diet for four-weeks, which constituted a stabilization process. […] Throughout the study period, samples were obtained while participants were fasting to minimize dietary effects. The samples were used to measure serum C-reactive protein and plasma homocysteine.
# Plasma homocysteine was measured using an immunochemiluminescent assay (Immulite DPC, Los Angeles, Calif., USA). Samples were stored after separation at −80° C. until assayed. Homocysteine was assayed on plasma samples after treatment with S-adenosyl-L-homocysteine (SAH) hydrolase and dithiothreitol (DTT) solution. EDTA plasma was separated from the cells as soon as possible after collection. Samples were stored on ice between the time of sampling and centrifugation.
# (§5) For statistical evaluation of the serum C-reactive protein and homocysteine, a two-way ANOVA with Bonferroni post-test was performed.
# [7] = tested on: fibrinogen; assay: Fibrinogen levels in postmenopausal women, six month treatment; type: in vivo, human; conditions: for Fibrinogen: n = 30, mean±SEM
# Excerpt: as §1, §2
# To measure fibrinogen levels, automated routine procedures were utilized.
# as §4
# [8] = tested on: sex hormone-binding globulin; assay: Sex hormone-binding globulin levels in postmenopausal women, six month treatment (immunoradiometric assay); type: in vivo, human; conditions: for Sex Hormone Binding Globulin: n = 30, mean±SEM
# Excerpt: as §1, §2
# To measure sex hormone-binding globulin levels, an immunoradiometric assay (RADIM SPA, Rome, Italy) (intra-assay CV 4%; interassay CV 5%; lower detection limit, 2.5 nmol/L) was used.
# as §4
# [9] = tested on: C-reactive protein; assay: Serum C-reactive protein in osteopenic women, six month study (immunochemiluminescent assay); type: in vivo, human
# Excerpt: Inflammatory markers, according to various representative embodiments of the present invention, may comprise G-reactive proteins and/or homocysteine and/or the like. […] Prior to the six month period, participants in the study were placed on a standard fat-reduced diet for four-weeks, which constituted a stabilization process. The participants were then randomly assigned to receive either genistein, HRT or a placebo. Throughout the study period, samples were obtained while participants were fasting to minimize dietary effects. The samples were used to measure serum C-reactive protein and plasma homocysteine.
# Serum C-reactive protein was measured using an immunochemiluminescent assay (Immulite DPC, Los Angeles, Calif., USA). Samples were stored after separation at −80° C. until assayed. Sensitivity was 0.07 μg/ml with intra- and interassay coefficient of variations of 3.1 and 5.7%, respectively. The reference interval was 0.20-5.10 μg/ml.
# as §5
# [10] = tested on: osteoprotegerin; assay: Osteoprotegerin levels in postmenopausal women, six month treatment (ELISA); type: in vivo, human; conditions: for Osteoprotegerin: n = 30, mean±SEM
# Excerpt: as §1, §2
# To measure osteoprotegerin levels, a commercially available ELISA kit according to the protocol of the manufacturer (Immunodiagnostik Bensheim Germany) was utilized. This assay detects monomeric, dimeric, and ligand-bound forms of OPG (intra-assay CV 5%; interassay CV 6%; lower detection limit, 0.14 pmol/l).
# as §4
# [11] = tested on: estradiol; assay: Estradiol levels in postmenopausal women, six month treatment (HPLC-UV); type: in vivo, human; conditions: for Estradiol: baseline, prior to six month treatment, n = 30
# Excerpt: as §1, §2, §3, §4
# [12] = tested on: insulin resistance; assay: Insulin resistance (HOMA-IR) in postmenopausal women, six month treatment; type: in vivo, human; conditions: for Insulin resistance: HOMA-IR, n = 30, mean±SEM
# Excerpt: as §1, §2
# To measure insulin resistance levels, insulin was measured by a commercially available ELISA kit according to the protocol of the manufacturer (DRG Diagnostik, Frauenberg Germany) (intraassay CV 4%; interassay CV 6%; lower detection limit, <1.5 μlU/ml). Serum glucose was measured by an enzymatic kit (BioSystemSA, Barcelona, Spain), (intra-assay CV 1%; interassay CV 1.8%; lower detection limit, 0.0126 mmol/l). Glucose in the sample produces, by means of the coupled reactions, a colored complex that can be spectrophotometrically measured. Insulin resistance was calculated using the Homeostasis Model Assessment method (HOMA-IR=(insulin×glucose)/22.5).
# as §4
# [13] = after six months, genistein 54 mg/d
# [14] = baseline, prior to six month treatment
# [15] = osteopenic women, after six months, genistein 54 mg/day or HRT, mean ± SE
# [16] = osteopenic women, before treatment (baseline), n = 30, mean ± SE
# [17] = after six months, genistein 54 mg/d, listed as genistein
# [18] = baseline to six months, not taking uncertainties into account
# [19] = baseline, prior to six month treatment, listed as genistein
# estrogen receptor ERβ, sequence (Q92731 whole entry): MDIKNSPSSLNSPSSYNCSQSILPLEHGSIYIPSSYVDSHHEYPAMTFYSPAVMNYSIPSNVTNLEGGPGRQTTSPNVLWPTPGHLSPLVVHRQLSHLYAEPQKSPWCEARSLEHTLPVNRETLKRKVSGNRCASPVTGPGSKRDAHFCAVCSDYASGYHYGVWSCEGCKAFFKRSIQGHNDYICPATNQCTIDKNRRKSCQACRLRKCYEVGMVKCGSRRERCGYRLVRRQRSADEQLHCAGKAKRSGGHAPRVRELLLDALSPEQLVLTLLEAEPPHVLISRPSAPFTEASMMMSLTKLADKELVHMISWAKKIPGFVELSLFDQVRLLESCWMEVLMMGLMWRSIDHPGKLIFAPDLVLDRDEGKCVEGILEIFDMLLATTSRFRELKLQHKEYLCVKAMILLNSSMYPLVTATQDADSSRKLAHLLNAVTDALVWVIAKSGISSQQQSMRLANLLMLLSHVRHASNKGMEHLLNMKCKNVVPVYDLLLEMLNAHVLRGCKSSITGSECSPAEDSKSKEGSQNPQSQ
structure (smiles),measurement,setting,value
Oc1ccc([C@H]2COc3cc(O)ccc3C2)cc1 [equol],Binding to estrogen receptor ERβ,[1],"binding similar to the isoflavones, but lower than genistein"
same,Binding to estrogen receptor ERα,[2],"binding similar to the isoflavones, but lower than genistein"
O=C1c2c(O)cc(O)cc2OCC1c1ccc(O)cc1 (stereo not shown) [dihydrogenistein],Binding to estrogen receptor ERβ,[1],"binding similar to the isoflavones, but lower than genistein"
same,Binding to estrogen receptor ERα,[2],"binding similar to the isoflavones, but lower than genistein"
"O=c1c(-c2ccc(O)cc2)coc2cc(O)cc(O)c12 [Genistein, 4′,5,7-Trihydroxyisoflavone 5,7-Dihydroxy-3-(4-hydroxyphenyl)-4H-1-benzopyran-4-one]",Increase in plasma genistein levels after 6 months of treatment,[3]; 6 months vs baseline,approximately 60%
same,Plasma Genistein,[3],0.07 ± 0.004 µmol/L
same,Plasma Genistein,[3]; listed as genistein,approximately 0.75 μmol/l
same,concentration at 6 months,"[3]; female, human, in vivo, 54 mg/d",~1200 nM
same,Decrease in levels of fasting glucose,"[4]; after six months of treatment, P<0.001 as compared to placebo, FIG. 5",8.7±2.3%
same,Fasting Glucose,[4]; [13],4.3 ± 0.10
same,Fasting Glucose,[4]; [14],4.74 ± 0.11
same,Decrease of fasting insulin levels,"[5]; after six months, FIG. 6",−12±3.33%
same,Fasting Insulin,[5]; [13],6.24 ± 0.45
same,Fasting Insulin,[5]; [14],7 ± 0.55
same,"Plasma homocysteine mean value, change from baseline","[6]; after six months, difference not statistically significant (P>0.05)",slightly decreased from baseline
same,"Plasma homocysteine, After",[6]; [15],10.72 ± 0.46 µmol/L
same,"Plasma homocysteine, Before",[6]; [16],11.36 ± 0.39 µmol/L
same,Fibrinogen,[7]; [13],3.18 ± 0.12 g/L
same,Fibrinogen,[7]; [17],3.18 ± 0.12 g/L
same,Decrease of fibrinogen levels,[7]; [18],~11.7%
same,Fibrinogen,[7]; [14],3.6 ± 0.12 g/L
same,Fibrinogen,[7]; [19],3.6 ± 0.12 g/L
same,Sex Hormone Binding Globulin,[8]; [13],63 ± 3.83 nmol/L
same,Sex Hormone Binding Globulin,[8]; [17],63 ± 3.83 nmol/L
same,Decrease of sex hormone binding globulin levels,[8]; [18],~11.3%
same,Sex Hormone Binding Globulin,[8]; [14],71 ± 4.2 nmol/L
same,Sex Hormone Binding Globulin,[8]; [19],71 ± 4.2 nmol/L
same,"C-reactive protein level, change from baseline",[9]; after 6 months of treatment,no significant differences at the end of treatment from baseline
same,"Serum C-reactive protein (CRP), After",[9]; [15],2.13 ± 0.45 mg/L
same,"Serum C-reactive protein (CRP), Before",[9]; [16],1.73 ± 0.31 mg/L
same,Decrease of osteoprotegerin levels,"[10]; after six months, FIG. 8",−2±0.3%
same,Osteoprotegerin,[10]; [13],4.4 ± 0.11
same,Osteoprotegerin,[10]; [14],4.67 ± 0.13
same,"Estradiol levels, six month readings","[11]; after 6 months, genistein 54 mg/d, FIG. 4A",approximately 78 pmol/L
same,Estradiol,[11],73 ± 2.19 pmol/L
same,Estradiol,[11]; listed as genistein,approximately 74 pmol/L
same,Effect on estradiol levels,"[11]; given over a six month period, FIG. 4A",does not significantly elevate estradiol levels
same,Decrease of insulin resistance levels,"[12]; after six months, FIG. 7",−14±5.8%
same,Insulin resistance,[12]; [13],1.18 ± 0.08
same,Insulin resistance,[12]; [14],1.47 ± 0.12
